Laboratory results reported in ChEMBL document CHEMBL1155576, “Bioactive carotanes from Trichoderma virens” (2000).
The source made the active and inactive calls. The rule behind the calls is not given here.

Assays:
Assay type in all cases: functional
[1] = tested on: Triticum aestivum; test: Inhibition of etiolated wheat coleoptile growth at 10^-5 M relative to control
[2] = tested on: Triticum aestivum; test: Inhibition of etiolated wheat coleoptile growth at 10^-4 M relative to control
[3] = tested on: Triticum aestivum; test: Inhibition of etiolated wheat coleoptile growth at 10^-3 M relative to control

## CC(C)(O)[C@@]1(O)[C@@H]2CCC(CO)=CC[C@@]2(C)C[C@@H]1O
[1]
  Activity: inactive
[2]
  Activity: inactive
[3]
  Activity: inactive

## CC(C)[C@@]1(O)[C@@H]2CC[C@@]3(C)O[C@H]3C[C@@]2(C)C[C@@H]1O [TRICHOCARANE A]
[2]
  inhibition at 100 µM: 40%

## CC(C)[C@@]1(O)[C@@H]2CCC(CO)=CC[C@@]2(C)C[C@@H]1O [TRICHOCARANE B]
[1]
  inhibition at 10 µM: 19%
[2]
  inhibition at 100 µM: 40%

## CC(C)[C@@]1(O)[C@@H]2CCC(CO)CC[C@@]2(C)C[C@@H]1O (some centres not stated) [TRICHOCARANE C]
[3]
  inhibition at 1000 µM: 86%
